Assay results: article PMC7054845 (Journal of medicinal chemistry, 2019)

Test system: hMMP-12
Experiment: hMMP-12 inhibition assay in diluted mouse plasma
Assay type: biochemical, human
Conditions: mouse plasma versus buffer

Q: For NC(=O)[C@H](CCC(=O)O)NC(=O)[C@H](CCC(=O)O)NC(=O)[C@H](Cc1cc(-c2ccc(-c3cccc(Cl)c3)cc2)no1)CP(=O)(O)c1ccc(Br)cc1 [RXP470.1], which “drop in affinity towards hMMP-12 in mouse plasma (factor)” value is on record?
A: 470
